Test results reported in patent publication US7807439B2, “Staphylococcus aureus-specific detection media and identifying and/or counting method using same” (Biomerieux S.A., priority 2001, dated 2010).

Tested on: S. intermedius 8407075
Test: Experiment 7: effect of maltose on α-glucosidase activity, weak inocula
Type: cell-based, Staphylococcus intermedius
Design: key: 0 corresponds to a lack of activity; 0.1 corresponds to the presence of a trace of coloration; 0.5 corresponds to the presence of a very pale coloration; 1 corresponds to the presence of a clear coloration of weak intensity; 1.5 corresponds to the presence of a coloration which is intermediate between colorations 1 and 2; 2 corresponds to the presence of a true coloration of medium intensity; 2.5 corresponds to the presence of a coloration which is intermediate between colorations 2 and 3; 3 corresponds to the presence of an intense coloration; 3.5 corresponds to the presence of a coloration which is intermediate between colorations 3 and 4; 4 corresponds to the presence of a very intense coloration
Details: strain 6
Protocol: The maltose is solubilized in water at a concentration of, for example, 100 g/l, and then a sufficient volume to obtain the final concentrations above is added to the three molten media. The Staphylococcal strains derived from the bioMérieux internal collection were seeded onto each one of the chromogenic media on their own (closely spaced perpendicular streaks over the entire surface of the dish) using a suspension at 0.5 MacFarland diluted to 1/30000. The dishes were incubated at 37° C. for 48 hours. The colonies formed were examined visually after 18, 24 and 48 hours of incubation and the intensity of coloration of the colonies was marked. The coloration was noted and the intensity of these colorations was marked. The reading scale is the same as that used above for tables 2 and 4.

**Q.** With OC[C@H]1O[C@H](O[C@H]2[C@H](O)[C@@H](O)C(O)O[C@@H]2CO)[C@H](O)[C@@H](O)[C@@H]1O (mixture of isomers) [Maltose, maltose] as the compound, how does the “Intensity of coloration of the colonies” value (18 h, Maltose 100 mg/l) read?
**A.** 0.3

**Q.** And the “Intensity of coloration of the colonies” value (18 h, Maltose 300 mg/l)?
**A.** 0.3

**Q.** What about the “Intensity of coloration of the colonies” value (18 h, Maltose 400 mg/l) of the same compound?
**A.** 0.3

**Q.** What about the “Intensity of coloration of the colonies” value (24 h, Maltose 100 mg/l) of the same compound?
**A.** 0.6

**Q.** And the “Intensity of coloration of the colonies” value (24 h, Maltose 300 mg/l)?
**A.** 0.8

**Q.** What about the “Intensity of coloration of the colonies” value (24 h, Maltose 400 mg/l) of the same compound?
**A.** 1

**Q.** What about the “Intensity of coloration of the colonies” value (>40 h, Maltose 100 mg/l) of the same compound?
**A.** 0.8

**Q.** What about the “Intensity of coloration of the colonies” value (>40 h, Maltose 300 mg/l) of the same compound?
**A.** 1

**Q.** What about the “Intensity of coloration of the colonies” value (>40 h, Maltose 400 mg/l) of the same compound?
**A.** 1.3
